Experimental data taken from patent US8207211B2, “Photosensitizers for targeted photodynamic therapy” (The General Hospital Corporation, priority 2005, dated 2012).

Tested on: P. aeruginosa
Experiment: Photodynamic inactivation (PDI), CFU survival, white light (red light for TBO)
Assay type: cell-based, Pseudomonas aeruginosa
Settings: 10 μM, 10 min, white light up to 50 J/cm^2
Description: Staphylococcus aureus (ATCC #35556), Escherichia coli (ATCC #25922), and Pseudomonas aeruginosa (ATCC #BAA-47; PAO1) were cultured in brain-heart infusion (BHI) broth (Difco, BD Diagnosttic Systems, Sparks, Md.) at 37° C. in aerobic conditions in a shaker at 150 rpm. Candida albicans (ATCC #18804) is grown in YM broth (Difco). Exponential cultures obtained by reculturing stationary overnight precultures were used for experiments.
E. coli, P. aeruginosa, and S. aureus are grown in fresh medium for approximately 1 hr to a density of about 10^8 cells/ml; the OD values at 650 nm are 0.6, 0.8, and 0.8, respectively. C. albicans is grown for approximately 4 hr to an approximate density of 10^8 cells/ml, corresponding to an OD of 6 at 650 nm (measured at 10-fold dilution). Cells were used for experiments in the mid-log growth phase.
A noncoherent lamp with filtered liquid light guides, e.g., a LumaCare™ LC122 lamp (MBG Technologies, Inc., Newport Beach, Calif.) was used to provide illumination of PS. More specifically, for illumination of fullerenes, a broad-band white light band pass filter (400-700 nm) was used, whereas for TBO, a band pass filter at 620-650 nm was used. The lamp was adjusted to give a uniform spot of about 4 cm diameter with an irradiance of 200 mW/cm^2, as measured with a power meter, e.g., a model DMM 199 meter with 201 Standard head (Coherent, Santa Clara, Calif.).
Typically, derivatized fullerenes prepared as described above are dissolved in DMSO to provide stock solutions having final concentrations of about 5 mM. […] All stock solutions were stored in the dark at room temperature.
In some experiments, for example in studies described in Examples below, suspensions of S. aureus cells (10^8 per ml) were incubated with derivatized fullerenes such as NI-1-3 and CI1-3 at a concentration of 100 μM in PBS at room temperature for 10 min. In other experiments, the bacterial suspension was centrifuged (4000×g for 10 min) after incubation and resuspended in fresh PBS before illumination; the latter procedure was referred to herein as a “wash.” E. coli, P. aeruginosa, and C. albicans were used at concentrations of about 10^8 cells per ml.
Illumination was carried out from above on microbial cell suspensions in wells of a 24-well plate. Aliquots were removed at times corresponding to the delivery of calculated fluences of light, and were serially diluted in PBS and streaked on square BHI or YM agar plates according to the method of Jett et al. (Jett, B. D., Hatter, K. L., Huycke, M. M., and Gilmore, M. S. (1997). Simplified agar plate method for quantifying viable bacteria. Biotechniques 23, 648-650). Survival fractions were calculated with reference to cells incubated in PBS alone. Values on killing curves at 0 J/cm^2 represent the dark toxicity of the fullerenes or other PS tested. Control cells were treated with light and no PS and also analyzed for viability.

C[N+]1(C)Cc2c(c3c4ccc5c6ccc7c8ccc9c%10c%11c%12c(c2c2c3c3c4c5c4c6c7c5c8c9c%11c6c(c%122)c3c4c56)C2C[N+](C)(C)CC%102)C1 (stereo not shown) [CI2]
PDT activity against P. aeruginosa: effectively killed
